The structures appear in SMILES notation. Bounds are passed on as bounds.

The source of these data is patent US12281122B1, “PI3K inhibitors” (Cogent Biosciences, Inc., priority 2023, dated 2025).

The subject of test [1] is T47D (PI3Kα-H1047R) cell line. The test is described as follows: HTRF phospho-AKT(S473) cell assay in T47D cells. Type of test: cell-based, human. The method, then:
(§1) Compounds in the present disclosure were tested in a cell based HTRF phospho-AKT(S473) (CisBio/Revvity) assay in human breast cancer cell lines as a measurement of PIK3CA activity through measuring AKT, a downstream effector. The activity of mutant PI3Kα-H1047R and PI3Kα-Wild Type was measured in the T47D (PI3Kα-H1047R) and SKBR3 (PI3Kα-Wild Type) cell lines, respectively. T47D cells were plated at 20,000 cells per well in 50 μL in RPMI medium supplemented with 10% FBS and 0.2 units/mL insulin, in 384 well plates. SKBR3 cells were plated at 25,000 cells per well in 50 μL in McCoy's 5A medium supplemented with 10% FBS, in 384 well plates. Cells were plated using a Combi Multidrop reagent dispenser (ThermoFisher), and placed in 5% CO2, 37° C. incubator overnight to adhere.
(§2) The next day, cells were treated with either compounds or vehicle (DMSO) in a 12-fold dose response curve of 1:3 dilutions, with 5 μM and 10 μM as the top concentrations for the T47D and SKBR3 cell lines, respectively. Compound treatment was facilitated via the D300e digital dispenser (Tecan), with a maximum DMSO concentration of 0.5%. Following compound addition, cell plates were incubated for 2 hours in 5% CO2, 37° C. incubator. The SKBR3 cells were stimulated and treated with 70 ng/ml PDGF-BB ligand (ThermoFisher) for the remaining 15 minutes of the incubation. Following compound incubation, compound and media was aspirated from the cells and 25 μL of supplemented lysis buffer was added per well, and incubated for 45 minutes at room temperature, shaking at 600 rpm. Next, 16 μL of cell lysate was added to a 384 well low volume ProxyPlate (Perkin Elmer/Revvity) mixed with 4 μL of HTRF antibodies (1:1 Eu Cryptate+d2 Cryptate). HTRF supplemented lysis buffer and antibody reagents were used from the phosphor-AKT(S473) HTRF assay kit (CisBio/Revvity), following manufacturers protocol recommendations. Plates were sealed and incubated at 4° C. overnight.
(§3) The following day, plates were centrifuged for 1 minute at 1000 rpm, and read on a PHERAstar plate reader. IC50 values were calculated using Spotfire software.
Background: Time-resolved FRET reads energy transfer from a long-lived donor to a nearby acceptor.

Test [2] deals with SKBR3 (PI3Kα-Wild Type) cell line. The test is described as follows: HTRF phospho-AKT(S473) cell assay in SKBR3 cells. Format: cell-based, human. The method, then:
as §1, §2, §3

The mark [3] stands for this setting: Homo sapiens; HTRF phospho-AKT(S473), T47D (PI3Kα-H1047R) cells, 2 hours compound incubation.
Setting [4] is: Homo sapiens, SK-BR-3; HTRF phospho-AKT(S473), SKBR3 (PI3Kα-Wild Type) cells, 2 hours compound incubation, PDGF-BB stimulated.
Setting [5] is: Homo sapiens; T47D (PI3Kα-H1047R) cells, HTRF phospho-AKT(S473), 2 hours compound incubation.
The mark [6] stands for this setting: Homo sapiens, SK-BR-3; SKBR3 (PI3Kα-Wild Type) cells, HTRF phospho-AKT(S473), 2 hours compound incubation, PDGF-BB stimulated.

On to `Cc1cc([C@@H](C)Nc2ccc(Cl)nc2C(=O)NS(C)(=O)=O)c2nc(-c3ccc4c(c3)C(=O)N(C)C4)n(C)c(=O)c2c1` [Compound 776, (R)-6-chloro-3-((1-(3,6-dimethyl-2-(2-methyl-3-oxoisoindolin-5-yl)-4-oxo-3,4-dihydroquinazolin-8-yl)ethyl)amino)-N-(methylsulfonyl) picolinamide], for which the IC50 – broadly, the point on the concentration scale where inhibition reaches its midpoint – in test [1] (setting [3]) lay within 250 to 500 nM; in test [2] (setting [4]), 1000 to 5000 nM.

`Cc1cc([C@@H](C)Nc2ccc(Cl)nc2C(=O)NS(C)(=O)=O)c2nc(N3CCC(c4ncn(C)n4)CC3)n(C)c(=O)c2c1` [Compound 253, (R)-6-chloro-3-((1-(3,6-dimethyl-2-(4-(1-methyl-1H-1,2,4-triazol-3-yl)piperidin-1-yl)-4-oxo-3,4-dihydroquinazolin-8-yl)ethyl)amino)-N-(methylsulfonyl) picolinamide]: the IC50 in test [1] (setting [5]) lay in the range of 250 to 500 nM; in test [2] (setting [6]), 1000 to 5000 nM.

For the compound `Cc1cc([C@@H](C)Nc2ccc(Cl)nc2C(=O)NS(C)(=O)=O)c2nc(N3C[C@@H]4CC(c5ccn(C)n5)C[C@H]4C3)n(C)c(=O)c2c1` (single isomer, unassigned) [Compound 426, 6-chloro-3-(((R)-1-(3,6-dimethyl-2-((3aR*,6aR*)-5-(1-methyl-1H-pyrazol-3-yl)hexahydrocyclopenta [c]pyrrol-2(1H)-yl)-4-oxo-3,4-dihydroquinazolin-8-yl)ethyl)amino)-N-(methylsulfonyl) picolinamide], the IC50 in test [1] (setting [5]) is 250 to 500 nM; in test [2] (setting [6]), at least 5000 nM.

With `Cc1cc([C@@H](C)Nc2ccc(Cl)nc2C(=O)NS(C)(=O)=O)c2nc(N3CCC(c4cnc(C)nc4)CC3)n(C)c(=O)c2c1` [Compound 261, (R)-6-chloro-3-((1-(3,6-dimethyl-2-(4-(2-methylpyrimidin-5-yl)piperidin-1-yl)-4-oxo-3,4-dihydroquinazolin-8-yl)ethyl)amino)-N-(methylsulfonyl) picolinamide], the IC50 was below 250 nM in test [1] (setting [5]) and 1000 to 5000 nM in test [2] (setting [6]).

In the case of `Cc1cc([C@@H](C)Nc2ccc(Cl)nc2C(=O)NS(C)(=O)=O)c2nc(-c3ccn4nc(C)nc4c3)n(C)c(=O)c2c1` [Compound 822, (R)-6-chloro-3-((1-(3,6-dimethyl-2-(2-methyl-[1,2,4]triazolo[1,5-a]pyridin-7-yl)-4-oxo-3,4-dihydroquinazolin-8-yl)ethyl)amino)-N-(methylsulfonyl) picolinamide], the IC50 was 250 to 500 nM in test [1] (setting [3]) and at least 5000 nM in test [2] (setting [4]).

As to `COc1cnn(C2CCN(c3nc4c([C@@H](C)Nc5ccc(Cl)nc5C(=O)NS(C)(=O)=O)cc(C)cc4c(=O)n3C)CC2)c1` [Compound 311, (R)-6-chloro-3-((1-(2-(4-(4-methoxy-1H-pyrazol-1-yl)piperidin-1-yl)-3,6-dimethyl-4-oxo-3,4-dihydroquinazolin-8-yl)ethyl)amino)-N-(methylsulfonyl) picolinamide], the values for the IC50 in test [1] (setting [5]) and in test [2] (setting [6]) were below 250 nM and 1000 to 5000 nM, respectively.

In the case of `Cc1cc([C@@H](C)Nc2ccc(Cl)nc2C(=O)NS(C)(=O)=O)c2nc(N3C[C@@H]4[C@H](C3)[C@H]4c3cn(CC(F)(F)F)nn3)n(C)c(=O)c2c1` [Compound 478, 6-chloro-3-(((R)-1-(3,6-dimethyl-4-oxo-2-((1R,5S,6R)-6-(1-(2,2,2-trifluoroethyl)-1H-1,2,3-triazol-4-yl)-3-azabicyclo[3.1.0]hexan-3-yl)-3,4-dihydroquinazolin-8-yl)ethyl)amino)-N-(methylsulfonyl) picolinamide], the IC50 is below 250 nM in test [1] (setting [3]) and 1000 to 5000 nM in test [2] (setting [4]).

As to `Cc1cnc(C2CCN(c3nc4c([C@@H](C)Nc5ccc(Cl)nc5C(=O)NS(C)(=O)=O)cc(Cl)cc4c(=O)n3C)CC2)cn1` [Compound 442, (R)-6-chloro-3-((1-(6-chloro-3-methyl-2-(4-(5-methylpyrazin-2-yl)piperidin-1-yl)-4-oxo-3,4-dihydroquinazolin-8-yl)ethyl)amino)-N-(methylsulfonyl) picolinamide], the IC50 in test [1] (setting [3]) is below 250 nM; in test [2] (setting [4]) it was 1000 to 5000 nM.

As to `Cc1cc([C@@H](C)Nc2ccc(Cl)nc2C(=O)NS(C)(=O)=O)c2nc(N3CCc4c(cnn4CC(F)(F)F)C3)n(C)c(=O)c2c1` [Compound 221, (R)-6-chloro-3-((1-(3,6-dimethyl-4-oxo-2-(1-(2,2,2-trifluoroethyl)-1,4,6,7-tetrahydro-5H-pyrazolo[4,3-c]pyridin-5-yl)-3,4-dihydroquinazolin-8-yl)ethyl)amino)-N-(methylsulfonyl) picolinamide], the IC50 was below 250 nM in test [1] (setting [5]) and 1000 to 5000 nM in test [2] (setting [6]).

Take `COc1ccc([C@H]2[C@@H]3CN(c4nc5c([C@@H](C)Nc6ccc(Cl)nc6C(=O)NS(C)(=O)=O)cc(C)cc5c(=O)n4C)C[C@@H]32)cn1` [Compound 610, 6-chloro-3-(((R)-1-(2-((1R,5S,6S)-6-(6-methoxypyridin-3-yl)-3-azabicyclo[3.1.0]hexan-3-yl)-3,6-dimethyl-4-oxo-3,4-dihydroquinazolin-8-yl)ethyl)amino)-N-(methylsulfonyl) picolinamide]: the 50% inhibitory concentration (IC50) in test [1] (setting [3]) is below 250 nM; in test [2] (setting [4]), at least 5000 nM.

In the case of `Cc1cc([C@@H](C)Nc2ccc(Cl)nc2C(=O)NS(C)(=O)=O)c2nc(N3CC[C@H](Oc4cncnc4)C3)n(C)c(=O)c2c1` [Compound 354, 6-chloro-3-(((R)-1-(3,6-dimethyl-4-oxo-2-((S)-3-(pyrimidin-5-yloxy)pyrrolidin-1-yl)-3,4-dihydroquinazolin-8-yl)ethyl)amino)-N-(methylsulfonyl) picolinamide], the IC50 in test [1] (setting [5]) is below 250 nM; in test [2] (setting [6]), 1000 to 5000 nM.

Consider `Cc1cc([C@@H](C)Nc2ccc(Cl)nc2C(=O)NS(=O)(=O)C2COC2)c2nc(N3CCOCC3)n(C)c(=O)c2c1` [Compound 294, (R)-6-chloro-3-((1-(3,6-dimethyl-2-morpholino-4-oxo-3,4-dihydroquinazolin-8-yl)ethyl)amino)-N-(oxetan-3-ylsulfonyl)picolinamide], for which the IC50 in test [1] (setting [5]) was below 250 nM; in test [2] (setting [6]), 1000 to 5000 nM.

As for `C[C@@H](Nc1ccc(Cl)nc1C(=O)NS(C)(=O)=O)c1cc(F)cc2c(=O)n(C)c(N3C[C@@H]4[C@H](C3)[C@H]4c3ccnn3C)nc12` [Compound 374, 6-chloro-3-(((R)-1-(6-fluoro-3-methyl-2-((1R,5S,6R)-6-(1-methyl-1H-pyrazol-5-yl)-3-azabicyclo[3.1.0]hexan-3-yl)-4-oxo-3,4-dihydroquinazolin-8-yl)ethyl)amino)-N-(methylsulfonyl) picolinamide], the half-inhibitory concentration (IC50) in test [1] (setting [5]) was below 250 nM; in test [2] (setting [6]), 1000 to 5000 nM.

For the compound `Cc1cc([C@@H](C)Nc2ccc(Cl)nc2C(=O)NS(C)(=O)=O)c2nc(N3CCC(c4cc(F)cnc4C)CC3)n(C)c(=O)c2c1` [Compound 436, (R)-6-chloro-3-((1-(2-(4-(5-fluoro-2-methylpyridin-3-yl)piperidin-1-yl)-3,6-dimethyl-4-oxo-3,4-dihydroquinazolin-8-yl)ethyl)amino)-N-(methylsulfonyl) picolinamide], the IC50 in test [1] (setting [5]) was below 250 nM; in test [2] (setting [6]) it was 1000 to 5000 nM.

Take `Cc1cc([C@@H](C)Nc2ccc(Cl)nc2C(=O)NS(C)(=O)=O)c2nc(N3CC[C@@H](Oc4ccnnc4)C3)n(C)c(=O)c2c1` [Compound 710, 6-chloro-3-(((R)-1-(3,6-dimethyl-4-oxo-2-((R)-3-(pyridazin-4-yloxy)pyrrolidin-1-yl)-3,4-dihydroquinazolin-8-yl)ethyl)amino)-N-(methylsulfonyl) picolinamide]: the IC50 was 1000 to 5000 nM in test [1] (setting [3]) and at least 5000 nM in test [2] (setting [4]).

In turn, `Cc1cc([C@@H](C)Nc2ccc(Cl)nc2C(=O)NS(C)(=O)=O)c2nc(N3C[C@@H]4C[C@H]3C[C@@H]4c3nn(C)cc3F)n(C)c(=O)c2c1` (relative stereo) [Compound 760, 6-chloro-3-(((R)-1-(2-((1R*,4S*,5R*)-5-(4-fluoro-1-methyl-1H-pyrazol-3-yl)-2-azabicyclo[2.2.1]heptan-2-yl)-3,6-dimethyl-4-oxo-3,4-dihydroquinazolin-8-yl)ethyl)amino)-N-(methylsulfonyl) picolinamide] came in with an IC50 in test [1] (HTRF phospho-AKT(S473), T47D (PI3Kα-H1047R) cells, 2 hours compound incubation) of 250 to 500 nM.
